This assay addresses T1, Integrin alpha-4/beta-7 (Homo sapiens, UniProt P13612+P26010).
T1 sequence (P13612 whole entry): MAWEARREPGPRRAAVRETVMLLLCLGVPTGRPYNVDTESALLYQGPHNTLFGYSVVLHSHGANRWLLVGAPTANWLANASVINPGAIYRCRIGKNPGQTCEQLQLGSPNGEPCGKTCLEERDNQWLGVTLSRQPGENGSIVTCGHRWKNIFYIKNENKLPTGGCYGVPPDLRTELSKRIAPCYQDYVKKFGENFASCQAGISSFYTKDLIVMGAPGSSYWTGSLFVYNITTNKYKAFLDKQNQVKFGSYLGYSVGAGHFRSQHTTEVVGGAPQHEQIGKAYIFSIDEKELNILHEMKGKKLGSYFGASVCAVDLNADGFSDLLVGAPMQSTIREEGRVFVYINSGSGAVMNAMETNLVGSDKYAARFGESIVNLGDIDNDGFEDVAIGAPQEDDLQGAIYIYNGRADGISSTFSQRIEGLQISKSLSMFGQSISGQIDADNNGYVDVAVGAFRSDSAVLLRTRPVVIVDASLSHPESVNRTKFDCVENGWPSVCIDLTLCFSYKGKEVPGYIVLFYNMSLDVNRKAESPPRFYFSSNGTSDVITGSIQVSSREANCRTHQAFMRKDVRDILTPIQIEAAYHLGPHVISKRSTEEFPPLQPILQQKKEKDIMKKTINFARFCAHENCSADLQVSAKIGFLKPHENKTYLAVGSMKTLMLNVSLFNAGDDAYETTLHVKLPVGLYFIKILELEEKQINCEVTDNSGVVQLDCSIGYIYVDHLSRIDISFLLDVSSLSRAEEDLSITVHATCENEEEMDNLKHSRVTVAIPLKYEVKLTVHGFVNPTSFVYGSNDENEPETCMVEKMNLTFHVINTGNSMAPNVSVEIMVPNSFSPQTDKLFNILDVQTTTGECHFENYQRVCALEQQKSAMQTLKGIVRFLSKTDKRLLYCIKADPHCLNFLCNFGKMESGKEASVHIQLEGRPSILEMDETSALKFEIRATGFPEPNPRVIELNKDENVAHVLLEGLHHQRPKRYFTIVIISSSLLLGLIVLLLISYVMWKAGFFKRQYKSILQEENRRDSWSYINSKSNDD
T1 sequence (P26010 whole entry): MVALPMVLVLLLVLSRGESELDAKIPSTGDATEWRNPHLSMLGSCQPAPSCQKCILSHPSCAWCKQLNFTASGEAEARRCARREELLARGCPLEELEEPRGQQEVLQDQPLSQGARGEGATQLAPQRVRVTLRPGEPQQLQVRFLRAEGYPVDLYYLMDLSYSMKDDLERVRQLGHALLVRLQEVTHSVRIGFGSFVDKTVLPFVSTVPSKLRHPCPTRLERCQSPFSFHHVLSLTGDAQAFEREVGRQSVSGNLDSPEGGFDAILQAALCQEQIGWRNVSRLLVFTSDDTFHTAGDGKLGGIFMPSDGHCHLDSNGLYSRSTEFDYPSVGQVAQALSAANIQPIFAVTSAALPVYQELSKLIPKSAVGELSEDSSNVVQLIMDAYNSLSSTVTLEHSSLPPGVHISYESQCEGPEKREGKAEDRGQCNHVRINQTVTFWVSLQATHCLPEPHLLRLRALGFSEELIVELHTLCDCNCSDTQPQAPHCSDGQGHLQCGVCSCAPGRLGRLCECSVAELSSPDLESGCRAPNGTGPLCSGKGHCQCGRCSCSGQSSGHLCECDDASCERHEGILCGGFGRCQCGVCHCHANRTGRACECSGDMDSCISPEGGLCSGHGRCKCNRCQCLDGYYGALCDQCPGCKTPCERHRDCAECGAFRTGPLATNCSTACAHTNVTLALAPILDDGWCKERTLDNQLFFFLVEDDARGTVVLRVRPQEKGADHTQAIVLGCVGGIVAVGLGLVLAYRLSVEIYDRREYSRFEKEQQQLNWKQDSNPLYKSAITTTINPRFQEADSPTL
Briefly: alpha-4 beta-7 Integrin Cell Capture Assay. The procedure: The potency of inhibitors in preventing α4β7 integrin interaction with MadCAM-1 was measured by monitoring the capture of α4β7 integrin expressing cells on a recombinant MadCAM-1 extracellular domain-coated plate. 384-Well plates (Corning 3702) were coated with MadCAM-1 extracellular domain by dispensing 20 μL of MAdCAM-1 at 1.0 μg/mL per well and incubating overnight at 4° C. The plates were then washed with PBS and blocked with 3% BSA for 2 hours before being washed again.

SMILES strings stand for the structures. pEC50: −log10 of the molar value.

The molecule `CC[C@@H](Nc1cc(F)c(C(=O)N[C@@H](Cc2ccc(-c3nccc(C)n3)c3ncccc23)C(=O)O)c(F)c1)C(F)(F)F` [US11116760, Example 294] had a pEC50 of 8.13. The result for `CCOCc1cc(OC)c(-c2ccc(C[C@H](NC(=O)c3c(F)cc(NS(=O)(=O)c4ccc(-c5ccnc(F)c5)cc4)cc3F)C(=O)O)c3cccnc23)c(OC)c1` [US11116760, Example 50] reads 9.40. The figure for `CCOCc1cc(OC)c(-c2ccc(C[C@H](NC(=O)c3c(F)cc(N)cc3F)C(=O)O)c3cccnc23)c(OC)c1` [US11116760, Example 44] is 7.96; for `Nc1ccc(C(F)(F)F)c(-c2ccc(C[C@H](NC(=O)c3c(Cl)cccc3Cl)C(=O)O)c3cccnc23)n1` [US11116760, Example 72] it is 8.26. The figure for `Cc1cc(C)nc(-c2ccc(C[C@H](NC(=O)c3c(F)cc(N4CCOC[C@@H]4C(F)(F)F)cc3F)C(=O)O)c3cccnc23)n1` [US11116760, Example 261] is 8.40; for `N#Cc1ccc(-c2ccc(C[C@H](NC(=O)c3c(F)cc(NC(=O)c4ccccc4)cc3F)C(=O)O)c3cccnc23)c(Cl)c1` [US11116760, Example 169] it is 7.05; for `N#Cc1ccc(-c2ccc(C[C@H](NC(=O)c3c(F)cc(N4CCOC(C(F)(F)F)C4)cc3F)C(=O)O)c3cccnc23)c(Cl)c1` (stereo not given in full) [US11116760, Example 245] it is 7.47. Molecule `N#Cc1ccc(-c2ccc(C[C@H](NC(=O)c3c(F)cc(NC4COC4)cc3F)C(=O)O)c3cccnc23)c(Cl)c1` [US11116760, Example 214] had a negative logarithm of the EC50 (pEC50) of 7.54.

`Cc1cc(C(F)(F)F)c(-c2ccc(C[C@H](NC(=O)c3c(F)cc(N[C@H](C4CC4)C(F)(F)F)cc3F)C(=O)O)c3cccnc23)c(=O)n1C` [US11116760, Example 155] showed a negative logarithm of the EC50 (pEC50) of 9.52. The figure for `CC[C@@H](Nc1cc(F)c(C(=O)N[C@@H](Cc2cc(F)c(-c3c(OC)cc(C)n(C)c3=O)c3ncccc23)C(=O)O)c(F)c1)C(F)(F)F` [US11116760, Example 138] is 9.10; for `N#Cc1ccc(-c2ccc(C[C@H](NC(=O)c3c(F)cc(N4CCO[C@@H](C(F)(F)F)C4)cc3F)C(=O)O)c3cccnc23)c(Cl)c1` [US11116760, Example 265] it is 7.16; for `C[C@H]1CN(c2cc(F)c(C(=O)N[C@@H](Cc3ccc(-c4ccc(C#N)cc4Cl)c4ncccc34)C(=O)O)c(F)c2)CCO1` [US11116760, Example 84] it is 7.93. In the case of `COc1ccnc(-c2ccc(C[C@H](NC(=O)c3c(F)cc(N4CCOC[C@@H]4C(F)(F)F)cc3F)C(=O)O)c3cccnc23)c1C(F)(F)F` [US11116760, Example 93], the negative-log EC50 (pEC50) was 9.40. The figure for `O=C(N[C@@H](Cc1ccc(-c2nccc(C(F)(F)F)c2Cl)c2ncccc12)C(=O)O)c1c(Cl)cccc1Cl` [US11116760, Example 314] is 7.87.

For the molecule `O=C(N[C@@H](Cc1ccc(-c2cc(F)c(F)cc2OCC2CC2)c2ncccc12)C(=O)O)c1c(F)cccc1F` [US11116760, Example 10], the pEC50 is 7.67.

Consider `O=C(N[C@@H](Cc1ccc(-c2ccc(F)c3cccnc23)c2ncccc12)C(=O)O)c1c(F)cccc1F` [US11116760, Example 15], for which the pEC50 was 8.03. The molecule `CC1(Nc2cc(F)c(C(=O)N[C@@H](Cc3ccc(-c4ccc(C#N)cc4Cl)c4ncccc34)C(=O)O)c(F)c2)COC1` [US11116760, Example 152] had a negative-log EC50 (pEC50) of 7.29. As to `Cc1cnc(-c2ccc(C[C@H](NC(=O)c3c(F)cc(N4CCOC[C@@H]4C(F)(F)F)cc3F)C(=O)O)c3cccnc23)nc1C` [US11116760, Example 97], the pEC50 is 8.49. The result for `O=C(N[C@@H](Cc1ccc(-c2nccc(C#CC3CC3)c2C(F)(F)F)c2ncccc12)C(=O)O)c1c(Cl)cccc1Cl` [US11116760, Example 330] reads 7.68; that for `CC(C)[C@H]1COCCN1c1cc(F)c(C(=O)N[C@@H](Cc2ccc(-c3ccc(C#N)cc3Cl)c3ncccc23)C(=O)O)c(F)c1` [US11116760, Example 292], 7.57. The figure for `N#Cc1ccc(-c2ccc(C[C@H](NC(=O)c3ccc4[nH]ccc4c3Cl)C(=O)O)c3cccnc23)c(Cl)c1` [US11116760, Example 266] is 7.14; for `Cc1c(C)c(C)n(C)c(=O)c1-c1ccc(C[C@H](NC(=O)c2c(F)cc(N3CCOC[C@H]3C(F)(F)F)cc2F)C(=O)O)c2cccnc12` [US11116760, Example 251] it is 8.51; for `N#Cc1ccc(-c2ccc(C[C@H](NC(=O)c3c(F)cc(NC4CCOCC4)cc3F)C(=O)O)c3cccnc23)c(Cl)c1` [US11116760, Example 262] it is 7.51. The result for `COc1ccn(C)c(=O)c1-c1ccc(C[C@H](NC(=O)c2c(F)cccc2F)C(=O)O)c2cccnc12` [US11116760, Example 13] reads 8.07; that for `C[C@@H]1CN(c2cc(F)c(C(=O)N[C@@H](Cc3ccc(-c4ccc(C#N)cc4Cl)c4ncccc34)C(=O)O)c(F)c2)CCO1` [US11116760, Example 328], 7.71. Take `N#Cc1ccc(-c2ccc(C[C@H](NC(=O)c3c(F)cc(N[C@H](C4CCOCC4)C(F)(F)F)cc3F)C(=O)O)c3cccnc23)c(Cl)c1` [US11116760, Example 338]: the pEC50 was 7.58. `Cc1cc2c(=O)n(-c3ccc(C[C@H](NC(=O)c4c(F)cc(N5CCOC[C@@H]5C(F)(F)F)cc4F)C(=O)O)c4cccnc34)c(=O)n(C)c2cn1` [US11116760, Example 424] showed a pEC50 of 9.82.

Molecule `COc1c(-c2ccc(C[C@H](NC(=O)c3c(F)cccc3F)C(=O)O)c3cccnc23)c(=O)n(C)c2ccccc12` [US11116760, Example 67] showed a negative logarithm of the EC50 (pEC50) of 8.80. For `Cc1ccc(C(F)(F)F)c(-c2ccc(C[C@H](NC(=O)c3c(Cl)cccc3Cl)C(=O)O)c3cccnc23)n1` [US11116760, Example 68], the pEC50 is 7.85. The result for `CC(O)c1cc(F)c(C(=O)N[C@@H](Cc2ccc(-c3ccc(C#N)cc3Cl)c3ncccc23)C(=O)O)c(F)c1` (stereo not given in full) [US11116760, Example 33] reads 7.22; that for `N#Cc1ccc(-c2ccc(C[C@H](NC(=O)c3c(F)cc(NC(C4CCOCC4)C(F)(F)F)cc3F)C(=O)O)c3cccnc23)c(Cl)c1` (stereo not given in full) [US11116760, Example 247], 7.45; that for `CC[C@@H](Nc1cc(F)c(C(=O)N[C@@H](Cc2ccc(-c3ncc(C)c(C)n3)c3ncccc23)C(=O)O)c(F)c1)C(F)(F)F` [US11116760, Example 309], 7.92. `Cc1nc(-c2ccc(C[C@H](NC(=O)c3c(F)cc(N4CCOC[C@@H]4C(F)(F)F)cc3Cl)C(=O)O)c3cccnc23)c(=O)n(C)c1C` [US11116760, Example 454] gave a pEC50 of 9.85.

Consider `CC[C@@H](Nc1cc(F)c(C(=O)N[C@@H](Cc2ccc(-c3c(C(F)(F)F)c4cc(N(C)C)ccc4n(C)c3=O)c3ncccc23)C(=O)O)c(F)c1)C(F)(F)F` [US11116760, Example 125], for which the pEC50 was 9.00. The result for `N#Cc1ccc(-c2ccc(C[C@H](NC(=O)c3c(F)cc(N[C@H]4CCC4(F)F)cc3F)C(=O)O)c3cccnc23)c(Cl)c1` [US11116760, Example 173] reads 7.09.

One may read the pEC50 as −log10 of the EC50, conventionally taken in molar units. Higher therefore signals a low EC50.

For the origin of these results see BindingDB's records for patent US11116760 (Gilead Sciences, 2021).
